Results reported in patent publication US11540516B2, “M-diamide compound and preparation method therefor and use thereof” (priority 2018, dated 2023).
Where two headings read alike, the source gives them in different places.

What was measured:
Type in all cases: in vivo
Plutella xylostella = test: Indoor bioactivity test against Plutella xylostella (leaf dip); settings: foliar; for mortality at 0.4 ppm / mortality at 1 ppm: 3rd day after treatment
Experimental: (§1) The leaf dip method was used to assay the insecticidal activity of compounds to strains of Plutella xylostella. Dip the leaf disc into the solution prepared with compound of this invention for 10 seconds, and dry them in a cool environment. Then place them in Petri dish with 4 discs per dish. Put the filter paper into the Petri dish to moisturize it. Put 10 of Plutella xylostella into each dish, which was repeated by 3 times. The dishes were placed in an illumination incubator and incubated at 25° C. with 14 hL: 10 hD illumination. The number of Plutella xylostella death was investigated on the 1st, 2nd and 3rd day after treatment, and the mortality was calculated.
According to the above method, compound 4 and KC1 were selected and parallelly tested against Plutella xylostella to compare their insecticidal activity.

Mythimna separata = test: Indoor bioactivity test against Mythimna separata (leaf dip); settings: foliar, 3rd day after treatment
Description: The leaf dip method was used to assay the insecticidal activity of compounds to strains of Mythimna sepatata. Cut above ground part of fresh maize seedlings, about 10 cm. Dip the maize seedlings into the solution prepared with compound of this invention for 10 seconds and dry them in a cool environment. Then cut the dry maize seedlings into 3˜5 cm leaf sections and put 3 leaf sections into each petri dish. Put ten of 4th-instar larvae of Mythimna separatas into each dish, which was repeated by 3 times. Then the dishes were placed in an illumination incubator and incubated at 25° C. in the dark. Symptoms were investigated on the 1st, 2nd and 3rd day after treatment, and the mortality was calculated.

Chilo suppressalis = test: Indoor bioactivity test against Chilo suppressalis (rice stem dip)
Experimental: The leaf dip method was used to assay the insecticidal activity of compounds to strains of Chilo suppressalis. The rice was cultivated in a plastic pot with a diameter of 9 cm and a height of 10 cm. When the rice grew about 25 cm, the aerial part of robust and consistent rice seedlings were selectively cut. Their leaves were removed and their stems of about 8 cm were kept for use. Pour the solution prepared with compound of this invention into the Petri dish (about 40 mL) and immerse the rice stems into the solution for 10 seconds. Take rice stems out and dry them in a cool environment. Put a wet cotton ball at the bottom of finger-like glass tube and 5 rice stems in each tube. Put 10 of 3rd-instar larvae of Chilo suppressa into each tube, which was repeated by 3 times. Seal the tubes with black cotton cloth and tighten them with rubber band. The tubes were placed in a illumination incubator at 28° C. and incubated in the dark. The number of alive Chilo suppressalis and the total number were investigated 3 days after treatment. The mortality was calculated.
According to the above method, Compound 23 and KC2 were selected and parallelly tested against Chilo suppressalis.

[1] = system: Spodoptera exigua Hiibner; test: Indoor bioactivity test against Spodoptera exigua Hiibner (leaf dip); settings: foliar, 3rd day after treatment
Experimental: as §1, with “strains of Spodoptera exigua Hiibner. Dip the” for “strains of Plutella xylostella. Dip the”, “10 of Spodoptera exigua Hiibners into each” for “10 of Plutella xylostella into each”, “number of Spodoptera exigua Hiibner death was” for “number of Plutella xylostella death was”

Spodoptera litura = test: Indoor bioactivity test against Spodoptera litura (leaf dip); settings: foliar
Experimental: as §1, with “Spodoptera litura.” for “Plutella xylostella.”, “Spodoptera litura” for “Plutella xylostella”
According to the above method, compound 4, 23 and KC1 were selected and parallelly tested against Spodoptera litura to compare the insecticidal activity.

soybean thrips = test: Biological activity on soybean thrips in greenhouse (foliar spray)
Experimental: Test system: naturally occurring thrips population on soybeans planted in greenhouse. The basic number of active thripses were more than 100 thripses per trifoliate leaf. Under the same conditions, the sensitivity of the thrips population to Spinetoram (dose: 50 mg/L) is 96.55% mortality on the 6th day after treatment.
The size of the plot: 10 m^2, no repetition.
Test formulation: each compound was made into 5% SL (compound 5%+emulsifier 5%+solvent to make up 100%).
(1) Spraying time: both adult and larva thripses were in the active period. The number of spray: 1 time.
(2) Standard for water usage: when dose was in mg/kg, the upper leaves were wet and water began to drop therefrom.
(3) Survey standard: count three single leaves as one leaf. Three leaves were randomly selected and investigated for the number of adult and larva thripses on them.
[…] 2 surveys were conducted.

[2] = 3rd day after treatment, read-out: mortality of Chilo suppressalis
[3] = 24 h, read-out: Mortality (%) 1 d
[4] = 48 h, read-out: Mortality (%) 2 d
[5] = 72 h, read-out: Mortality (%) 3 d
[6] = dose 50 ppm, 1 d, foliar spray, 5% SL
[7] = dose 50 ppm, 6 d, foliar spray, 5% SL

CC(C1CC1)N(C(=O)c1ccccc1)c1cccc(C(=O)Nc2c(Br)cc(C(F)(C(F)(F)F)C(F)(F)F)cc2C(F)(F)F)c1F (centres unmarked) [Compound 8, N-(2-bromo-4-(perfluoropropan-2-yl)-6-(trifluoromethyl)phenyl)-3-(N-(1-cyclopropylethyl)benzamido)-2-fluorobenzamide]
mortality at 0.4 ppm (Plutella xylostella): ≥ 90%
mortality at 1 ppm (Mythimna separata): ≥ 90%

O=C(Nc1c(Br)cc(C(F)(C(F)(F)F)C(F)(F)F)cc1C(F)(F)F)c1cccc(N(C(=O)c2ccccc2)C(C2CC2)C2CC2)c1F [Compound 22, N-(2-bromo-4-(perfluoropropan-2-yl)-6-(trifluoromethyl)phenyl)-3-(N-(dicyclopropylmethyl)benzamido)-2-fluorobenzamide]
mortality at 1 ppm (Mythimna separata): ≥ 90%

CC(C1CC1)N(C(=O)c1ccc(C#N)cc1)c1cccc(C(=O)Nc2c(Br)cc(C(F)(C(F)(F)F)C(F)(F)F)cc2C(F)(F)F)c1F (centres unmarked) [Compound 26, N-(2-bromo-4-(perfluoropropan-2-yl)-6-(trifluoromethyl)phenyl)-3-(4-cyano-N-(1-cyclopropylethyl)benzamido)-2-fluorobenzamide]
mortality at 0.4 ppm (Plutella xylostella): ≥ 90%
mortality at 1 ppm (Mythimna separata): ≥ 90%
mortality at 5 ppm (Chilo suppressalis; [2]): ≥ 90%

COC(c1cc(Br)c(NC(=O)c2cccc(N(CC3CC3)C(=O)c3ccc(C(F)(F)F)cc3)c2F)c(C(F)(F)F)c1)(C(F)(F)F)C(F)(F)F [Compound 38, N-(2-bromo-4-(1,1,1,3,3,3-hexafluoro-2-methoxypropan-2-yl)-6-(trifluoromethyl)phenyl)-3-(N-(cyclopropylmethyl)-4-(trifluoromethyl)benzamido)-2-fluorobenzamide]
mortality at 1 ppm (Mythimna separata): ≥ 90%

CC(C1CC1)N(C(=O)c1ccc(C(F)(F)F)cc1)c1cccc(C(=O)Nc2c(Br)cc(C(F)(C(F)(F)F)C(F)(F)F)cc2C(F)(F)F)c1F (centres unmarked) [Compound 39, N-(2-bromo-4-(perfluoropropan-2-yl)-6-(trifluoromethyl)phenyl)-3-(N-(1-cyclopropylethyl)-4-(trifluoromethyl)benzamido)-2-fluorobenzamide]
mortality at 1 ppm (Plutella xylostella): ≥ 90%
mortality at 1 ppm (Mythimna separata): ≥ 90%
mortality at 10 ppm (Chilo suppressalis; 3rd day after treatment): ≥ 90%

CC(C1CC1)N(C(=O)c1ccc(Cl)cc1)c1cccc(C(=O)Nc2c(Br)cc(C(F)(C(F)(F)F)C(F)(F)F)cc2C(F)(F)F)c1F (centres unmarked) [Compound 44, N-(2-bromo-4-(perfluoropropan-2-yl)-6-(trifluoromethyl)phenyl)-3-(4-chloro-N-(1-cyclopropylethyl)benzamido)-2-fluorobenzamide]
mortality at 1 ppm (Mythimna separata): ≥ 90%

O=C(Nc1c(Br)cc(C(F)(C(F)(F)F)C(F)(F)F)cc1C(F)(F)F)c1cccc(N(CC2CC2)C(=O)c2ccc(Br)cc2)c1F [Compound 46, N-(2-bromo-4-(perfluoropropan-2-yl)-6-(trifluoromethyl)phenyl)-3-(4-bromo-N-(cyclopropylmethyl)benzamido)-2-fluorobenzamide]
mortality at 1 ppm [1]: 90%
mortality at 5 ppm (Chilo suppressalis; [2]): ≥ 90%

O=C(Nc1c(I)cc(C(F)(C(F)(F)F)C(F)(F)F)cc1C(F)(F)F)c1cccc(N(CC2CC2)C(=O)c2ccc(Br)cc2)c1F [Compound 47, N-(2-iodo-4-(perfluoropropan-2-yl)-6-(trifluoromethyl)phenyl)-3-(4-bromo-N-(cyclopropylmethyl)benzamido)-2-fluorobenzamide]
mortality at 0.4 ppm (Spodoptera litura; 0.4 ppm, 3rd day after treatment, read-out: mortality of Spodoptera litura): ≥ 90%
mortality at 1 ppm [1]: 90%
mortality at 1 ppm (Mythimna separata): ≥ 90%
mortality at 10 ppm (Chilo suppressalis; 3rd day after treatment): ≥ 90%

CC(C1CC1)N(C(=O)c1ccc(Br)cc1)c1cccc(C(=O)Nc2c(Br)cc(C(F)(C(F)(F)F)C(F)(F)F)cc2C(F)(F)F)c1F (centres unmarked) [Compound 50, N-(2-bromo-4-(perfluoropropan-2-yl)-6-(trifluoromethyl)phenyl)-3-(4-bromo-N-(1-cyclopropylethyl)benzamido)-2-fluorobenzamide]
mortality at 10 ppm (Chilo suppressalis; 3rd day after treatment): ≥ 90%

O=C(Nc1c(Br)cc(C(F)(C(F)(F)F)C(F)(F)F)cc1C(F)(F)F)c1cccc(N(CC2CC2)C(=O)c2ccc(I)cc2)c1F [Compound 52, N-(2-bromo-4-(perfluoropropan-2-yl)-6-(trifluoromethyl)phenyl)-3-(N-(cyclopropylmethyl)-4-iodobenzamido)-2-fluorobenzamide]
mortality at 10 ppm (Spodoptera litura; 3rd day after treatment): ≥ 90%
mortality at 1 ppm (Mythimna separata): ≥ 90%
mortality at 10 ppm (Chilo suppressalis; 3rd day after treatment): ≥ 90%

O=C(Nc1c(I)cc(C(F)(C(F)(F)F)C(F)(F)F)cc1C(F)(F)F)c1cccc(N(CC2CC2)C(=O)c2ccc(I)cc2)c1F [Compound 53, N-(2-iodo-4-(perfluoropropan-2-yl)-6-(trifluoromethyl)phenyl)-3-(N-(cyclopropylmethyl)-4-iodobenzamido)-2-fluorobenzamide]
mortality at 10 ppm (Spodoptera litura; 3rd day after treatment): ≥ 90%
mortality at 10 ppm ([1]; 10 ppm): ≥ 90%
mortality at 10 ppm (Chilo suppressalis; 3rd day after treatment): ≥ 90%

CS(=O)(=O)c1ccc(C(=O)N(CC2CC2)c2cccc(C(=O)Nc3c(Br)cc(C(F)(C(F)(F)F)C(F)(F)F)cc3C(F)(F)F)c2F)cc1 [Compound 57, N-(2-bromo-4-(perfluoropropan-2-yl)-6-(trifluoromethyl)phenyl)-3-(N-(cyclopropylmethyl)-4-(methylsulfonyl)benzamido)-2-fluorobenzamide]
mortality at 10 ppm (Spodoptera litura; 3rd day after treatment): ≥ 90%
mortality at 1 ppm (Plutella xylostella): ≥ 90%
mortality at 1 ppm [1]: 90%
mortality at 1 ppm (Mythimna separata): ≥ 90%

CC(C1CC1)N(C(=O)c1ccc(F)cc1)c1cccc(C(=O)Nc2c(Br)cc(C(F)(C(F)(F)F)C(F)(F)F)cc2C(F)(F)F)c1F (centres unmarked) [Compound 63, N-(2-bromo-4-(perfluoropropan-2-yl)-6-(trifluoromethyl)phenyl)-3-(N-(1-cyclopropylethyl)-4-fluorobenzamido)-2-fluorobenzamide]
mortality at 1 ppm (Plutella xylostella): ≥ 90%

CN(C(=O)c1ccccc1)c1cccc(C(=O)Nc2c(Br)cc(C(F)(C(F)(F)F)C(F)(F)F)cc2C(F)(F)F)c1F [KC1 (broflanilide), broflanilide, reference compound]
mortality at 0.4 ppm (Spodoptera litura; [3]): 0%
mortality at 1 ppm (Spodoptera litura; [3]): 26.7%
mortality at 0.4 ppm (Spodoptera litura; [4]): 0%
mortality at 1 ppm (Spodoptera litura; [4]): 33.3%
mortality at 0.4 ppm (Spodoptera litura; [5]): 0%
mortality at 1 ppm (Spodoptera litura; [5]): 33.3%
mortality at 0.04 ppm (Plutella xylostella; [3]): 0%
mortality at 0.04 ppm (Plutella xylostella; [4]): 56.7%
mortality at 0.04 ppm (Plutella xylostella; [5]): 90%

CN(C(=O)c1ccc(C#N)cc1)c1cccc(C(=O)Nc2c(Br)cc(C(F)(C(F)(F)F)C(F)(F)F)cc2C(F)(F)F)c1F [KC2, reference compound]
mortality at 0.4 ppm (Chilo suppressalis; 72 h, 0.4 ppm, 3d): 0%
mortality at 1 ppm (Chilo suppressalis; 72 h, 1 ppm, 3d): 53.3%
mortality at 2 ppm (Chilo suppressalis; 72 h, 2 ppm, 3d): 86.7%
mortality at 5 ppm (Chilo suppressalis; 72 h, 3d, read-out: Mortality (%, 3d) 5 ppm): 93.3%

Spinetoram [reference compound]
sensitivity of the thrips population, mortality (soybean thrips; dose 50 mg/L, 6th day after treatment): 96.55%
Mortality % 1 d (soybean thrips; [6]): 93.94%
No. of thrips 1 d (soybean thrips; [6]): 16
Mortality % 6 d (soybean thrips; [7]): 96.55%
No. of thrips 6 d (soybean thrips; [7]): 4
